These results are taken from EP0087751B1, “Water-soluble peptides from very poorly soluble amino acids” (PFRIMMER KABI GMBH & CO. KG, priority 1982, dated 1985).

Series [1] is described as follows: Solubility in water.
A short description of series [2]: Solubility in water. It is filed as physicochemical. Conditions: for Löslichkeit: in water.

≈ marks a conversion by molar mass, not a printed value. Where a SMILES comes first, the peptide text is derived from it.

For `N[C@@H](CSSC[C@H](N)C(=O)O)C(=O)O` [Cystin], the solubility in the series “Solubility in water [1]” turned out to be 0.09 mg/mL (≈ 0.375 mM).
The molecule `NCCCC[C@H](N)C(=O)O` [Lysin] yielded a solubility in the series “Solubility in water [1]” of 666 mg/mL (≈ 4560 mM).
In the series “Solubility in water [2]” (temperature not stated), `N[C@@H](Cc1ccc(O)cc1)C(=O)NCCCC[C@H](NC(=O)[C@@H](N)Cc1ccc(O)cc1)C(=O)O` [N^2-Tyrosinyl-N^6-tyrosinyl-lysin, N^2-Tyrosinyl-N^6-L-tyrosinyl-L-lysin] (H-Tyr-Lys(Tyr)-OH) returned a Löslichkeit of 622 g/L H20. In “Solubility in water [2]” (ratio of water solubility of the tripeptide to that of free Tyrosin), the “Faktor besser löslich in Wasser als das freie Tyrosin” value was 1,62 . 10^3.
In the case of “N^2-Cystinyl-N^6-L-cystinyl-L-lysin [N^2,N^6-Di-L-cystinyl, L-lysin]”, in “Solubility in water [2]” (20°C), the Löslichkeit amounted to 125 g/L H20.
